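96-well plates; 48 h exposure; 5 concentrations. Endpoints by linear interpolation between flanking doses. Not reached: highest tested concentration assigned. GI50 = concentration required for 50% inhibition of growth. TGI: total growth inhibition.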
Columns and labels:
Experiment in all cases: growth of human tumour cells (NCI), 48 h
[1] = test system: U251 CNS
[2] = test system: A549 NSCLC
[3] = test system: SW-620 colon
[4] = test system: SN12C renal
[5] = test system: UACC-62 melanoma
[6] = test system: HS 578T breast
[7] = test system: MALME-3M melanoma
[8] = test system: SF-295 CNS
[9] = test system: SR leukemia
[10] = test system: NCI/ADR-RES ovarian

For `N=c1ccn(O)cc1/C=C1/C(=O)Nc2ccccc21`, the GI50 [1] was > 100 µM, the TGI [1] was > 100 µM and the GI50 [2] was > 100 µM. The TGI [2] was > 100 µM, the GI50 [3] was > 100 µM and the TGI [3] was > 100 µM. The GI50 [4] was > 100 µM, the TGI [4] was > 100 µM and the GI50 [5] was > 100 µM. For the same compound, the TGI [5] was > 100 µM, the GI50 [6] was > 100 µM and the TGI [6] was > 100 µM. The GI50 [7] was > 100 µM, the TGI [7] was > 100 µM and the GI50 [8] was > 100 µM. For the same compound, the TGI [8] was > 100 µM, the GI50 [9] was > 100 µM and the TGI [9] was > 100 µM. For the same compound, the GI50 [10] was > 100 µM and the TGI [10] was > 100 µM.
With `CN(Cc1ccccc1)c1ccc(CO)c(Cl)c1` the GI50 [1] was 4.55 µM, the TGI [1] was > 90.8 µM and the GI50 [2] was 4.74 µM. The TGI [2] was 32.5 µM, the GI50 [3] was 7.98 µM and the TGI [3] was > 100 µM. The GI50 [4] was 31.8 µM, the TGI [4] was > 100 µM and the GI50 [5] was 0.384 µM. For the same compound, the TGI [5] was 3.93 µM, the GI50 [6] was 35.2 µM and the TGI [6] was > 100 µM. The GI50 [7] was 79 µM, the TGI [7] was > 100 µM and the GI50 [8] was 4.25 µM. The TGI [8] was > 76.8 µM, the GI50 [9] was 19 µM and the TGI [9] was > 86.6 µM. It also gave a GI50 [10] of 18.9 µM and a TGI [10] of 72.6 µM.
With `S=C(Nc1ccc(-c2nc3ccccc3[nH]2)cc1)Nc1ccc(-c2nc3ccccc3[nH]2)cc1` the GI50 [1] was > 100 µM, the TGI [1] was > 100 µM and the GI50 [2] was > 100 µM. The TGI [2] was > 100 µM, the GI50 [3] was > 100 µM and the TGI [3] was > 100 µM. For the same compound, the GI50 [4] was 47.7 µM, the TGI [4] was > 100 µM and the GI50 [5] was 38.6 µM. For the same compound, the TGI [5] was > 100 µM, the GI50 [6] was > 100 µM and the TGI [6] was > 100 µM. The GI50 [7] was 52.5 µM, the TGI [7] was > 100 µM and the GI50 [8] was 48.4 µM. For the same compound, the TGI [8] was > 100 µM, the GI50 [9] was 63.4 µM and the TGI [9] was > 100 µM. For the same compound, the GI50 [10] was 66.9 µM and the TGI [10] was > 100 µM.
Compound `O=Nc1ccc(NO)c2ccccc12` has a GI50 [1] of 13.1 µM, a TGI [1] of 26.1 µM and a GI50 [2] of 18.3 µM. For the same compound, the TGI [2] was 38.7 µM, the GI50 [3] was 3.87 µM and the TGI [3] was 21.5 µM. For the same compound, the GI50 [4] was 2.68 µM, the TGI [4] was 11 µM and the GI50 [5] was 4 µM. For the same compound, the TGI [5] was 16.4 µM, the GI50 [6] was 28.3 µM and the TGI [6] was > 100 µM. For the same compound, the GI50 [7] was 5.85 µM, the TGI [7] was 19 µM and the GI50 [8] was 14.8 µM. For the same compound, the TGI [8] was 28.6 µM, the GI50 [9] was 16.3 µM and the TGI [9] was 62 µM. The GI50 [10] was 2.92 µM and the TGI [10] was 15.8 µM.
For `Cc1nnc(-c2cccc(-c3ccc(C(=O)NCC4CC4)cc3)c2)o1`, the GI50 [1] was > 25 µM, the TGI [1] was > 25 µM and the GI50 [2] was > 25 µM. For the same compound, the TGI [2] was > 25 µM, the GI50 [3] was > 25 µM and the TGI [3] was > 25 µM. The GI50 [4] was > 25 µM, the TGI [4] was > 25 µM and the GI50 [5] was > 25 µM. For the same compound, the TGI [5] was > 25 µM, the GI50 [6] was > 25 µM and the TGI [6] was > 25 µM. For the same compound, the GI50 [7] was > 25 µM, the TGI [7] was > 25 µM and the GI50 [8] was > 25 µM. For the same compound, the TGI [8] was > 25 µM, the GI50 [9] was > 25 µM and the TGI [9] was > 25 µM. For the same compound, the GI50 [10] was > 25 µM and the TGI [10] was > 25 µM.
In the case of `CC1CCCC(C(O)CC2CC(=O)NC(=O)C2)C1O` (stereo not given), the TGI [1] is reported as > 100 µM, the TGI [2] is reported as > 100 µM and the TGI [3] is reported as > 100 µM. For the same compound, the TGI [4] was > 100 µM, the TGI [5] was > 100 µM and the TGI [6] was > 100 µM. For the same compound, the TGI [7] was > 100 µM, the TGI [8] was > 100 µM and the TGI [9] was > 100 µM. For the same compound, the TGI [10] was > 100 µM.
`CC(C)=CCC[C@](C)(O)[C@H]1CC[C@]2(C)[C@@H]1CC[C@@H]1[C@@]3(C)CC/C(=N/O)C(C)(C)[C@@H]3CC[C@]12C` was tested, and the GI50 [1] was 12.8 µM, the TGI [1] was 49.4 µM and the GI50 [2] was 5.86 µM. The TGI [2] was 62.9 µM, the GI50 [3] was 6.98 µM and the TGI [3] was > 100 µM. The GI50 [4] was 8.48 µM, the TGI [4] was 35.2 µM and the GI50 [5] was 17.8 µM. For the same compound, the TGI [5] was > 100 µM, the GI50 [6] was 20.2 µM and the TGI [6] was > 100 µM. For the same compound, the GI50 [7] was 8.25 µM, the TGI [7] was 32.6 µM and the GI50 [8] was 12.2 µM. It also gave a TGI [8] of 42.3 µM, a GI50 [9] of 7.65 µM and a TGI [9] of 49.4 µM. The GI50 [10] was 18.9 µM and the TGI [10] was > 100 µM.
For `O=C(Cc1ccc(F)c(F)c1)Nc1cc(C2(C(F)(F)F)CC2)nn1Cc1ccccc1`, the GI50 [1] was 4.61 µM, the TGI [1] was > 15 µM and the GI50 [2] was 4.6 µM. For the same compound, the TGI [2] was > 15 µM, the GI50 [3] was 3.91 µM and the TGI [3] was > 15 µM. The GI50 [4] was 4.64 µM, the TGI [4] was > 15 µM and the GI50 [5] was 4.33 µM. The TGI [5] was > 15 µM, the GI50 [6] was 1.53 µM and the TGI [6] was 10.1 µM. For the same compound, the GI50 [7] was 2.49 µM, the TGI [7] was 7.85 µM and the GI50 [8] was 3.77 µM. The TGI [8] was 14.7 µM, the GI50 [9] was 3.89 µM and the TGI [9] was > 15 µM. The GI50 [10] was 3.98 µM and the TGI [10] was > 15 µM.
For `Oc1ccc(C(c2ccc(O)cc2)c2ccc(O)cc2)cc1`, the TGI [1] was 83.7 µM, the TGI [2] was > 100 µM and the TGI [3] was 88.1 µM. It also gave a TGI [4] of 43.9 µM, a TGI [5] of 29.8 µM and a TGI [6] of 56.1 µM. For the same compound, the TGI [7] was 44 µM, the TGI [8] was > 100 µM and the TGI [9] was 75.3 µM. The TGI [10] was 44.2 µM.

Reference: PubChem BioAssay (NCI)
